In patent publication US10620214B2, “Chloroalkane penetration method for quantifying access of a molecule into a cell” (TRUSTEES OF TUFTS COLLEGE, priority 2016, dated 2020):

Tested on: HaloEnzyme-GFP-expressing HeLa cell line
Assay: Chloroalkane Penetration Assay (CAPA), cytosolic access
Type: cell-based
Description: FIG. 1A provides a schematic showing the experimental procedure of CAPA, which uses a HaloEnzyme-GFP-expressing HeLa cell line. […] For CAPA, cells are pre-treated with vehicle or peptide, washed, and chased with HTag-TAMRA. Cells treated with cell-penetrant molecules have had their HaloEnzyme blocked, thus preventing the HTag-TAMRA from covalently labeling the cells. In this schematic, the molecule of interest is a peptide.
FIG. 1C provides a graph showing the dose-dependent response curve of HTag-TAMRA signal after pre-incubation with different concentrations of HTag-cTMP, HTag-DD5o, and the negatively charged, linear variant HTag-DD5-neg. Data was normalized using the values obtained for vehicle (0% HTag-TAMRA signal inhibition) and for vehicle with no HTag-TAMRA added (100% signal inhibition). Points are means from three independent experiments and error bars show standard deviation.
The CAPA method uses a cell line that stably expresses a cytosolically-oriented protein as a fusion with GFP and Haloenzyme. Haloenzyme is a modified bacterial chloroalkane dehalogenase that covalently labels itself with the small, otherwise inert Haloligand functional group. If an exogenously added molecule bearing the Haloligand (a small chloroalkane) reaches the cytosol, it reacts exclusively with the Haloenzyme and blocks its active site. Following this incubation period, the amount of unreacted Haloenzyme was measured by chasing with a Haloligand-bearing dye (here, Htag-TAMRA). The relative amount of red cellular fluorescence after this chase was then quantified by flow cytometry. The red signal reported directly on the amount of free Haloenzyme, which is inversely proportional to the degree to which the added molecule accessed the cytoplasm during the incubation period.
Halo-GFP-Mitochondrial targeted (Mito.)+mCherry-dihydrofolate reductase (DHFR) HeLa cells were obtained from the Chenoweth Lab as described by (Ballister et al., Nat. Commun. 2014. 5, 1-9), which is incorporated herein by reference. The expression vector used for the incorporation of GFP-Haloenzyme is shown at FIG. 3. Cells were cultured using DMEM+10% FBS+1% Pen/Strep+1 μg/mL puromycin. For experiments, cells were seeded in a 24-well plate the day before at 1.0×10^5 cells/well. Materials for cell culture were purchased from Thermo Scientific.
Cells were rinsed 1× with PBS, then treated with peptides in acidified Opti-MEM (0.15% 6N HCl) for 4 hours. Media was aspirated and cells were washed for 30 min with phenol red-free DMEM+10% FBS+1% pen/strep. Cells were chased with 5 μM HTag-TAMRA (Promega) in phenol red-free DMEM+10% FBS+1% pen/strep for 30 min. Cells were washed for 15 min with phenol red-free DMEM+10% FBS+1% pen/strep. Cells were rinsed once with phosphate buffered saline (PBS), then trypsinized and transferred to 1.5 mL Eppendorf tubes. Cells were pelleted and washed twice with PBS. Cell pellet was resuspended in 250 μL of PBS and 200 μL were transferred to 96-well plate for flow cytometry analysis. Data was gated for live cells measuring 10,000 cells per sample. Mean fluorescence intensity was obtained in the Yellow channel for HTag-TAMRA, and data was normalized. Background yellow fluorescence was observed both by flow cytometry and microscopy due to the constituent expression of mCherry-DHFR, but the signal observed for HTag-TAMRA-treated cells was 10-fold higher than background.

[1] = 50 μM inhibitor for 1 hr, then biomolecule 4 hr at 37° C., FIG. 5D

## N=C(N)NCCC[C@H](NC(=O)[C@H](CCCNC(=N)N)NC(=O)[C@H](CCCNC(=N)N)NC(=O)[C@H](CCCNC(=N)N)NC(=O)[C@H](CCCNC(=N)N)NC(=O)[C@H](CCCNC(=N)N)NC(=O)[C@H](CCCNC(=N)N)NC(=O)[C@H](CCCNC(=N)N)NC(=O)[C@H](CCCNC(=N)N)NC(=O)CCC(=O)NCCOCCOCCCCCCCl)C(N)=O [Arg9]
  cytosolic penetration at 37° C. versus 4° C.: significantly greater at 37 °C compared to 4 °C
[1]
  effect of EIPA on cytosolic penetration: no significant reduction in cytosolic penetration

## N[C@@H](Cc1c[nH]c2ccccc12)C(=O)O [Trp]
[1]
  effect of EIPA on cytosolic penetration: no significant reduction in cytosolic penetration
  effect of chlorpromazine on cytosolic penetration: no effect
FIG. 5A
  time course of cytosolic penetration: time-dependent cytosolic penetration
